Laboratory results from ChEMBL document CHEMBL4414659, “Chemical Constituents from the Aerial Parts of Agastache rugosa and Their Inhibitory Activities on Prostaglandin E2 Production in Lipopolysaccharide-Treated RAW 264.7 Macrophages” (J Nat Prod, 2019).
pIC50: −log10 of the molar value.

System: RAW264.7
Test: Antiinflammatory activity against LPS-stimulated mouse RAW264.7 cells assessed as decrease in PGE2 production preincubated for 1 hr followed by LPS stimulation and measured after 24 hrs by ELISA
Type: functional, cell-based

pIC50	SMILES
4.74	C=CCc1ccc(O[C@@H]2O[C@H](CO)[C@@H](O)[C@H](O)[C@H]2O)cc1
5.49	C=CCc1ccc(O[C@@H]2O[C@H](CO)[C@@H](O)[C@H](O)[C@H]2O)c(O)c1
4.77	CC1=CC(=O)CC(C)(C)[C@H]1/C=C/[C@@H](C)O[C@@H]1O[C@H](CO)[C@@H](O)[C@H](O)[C@H]1O
4.73	COc1ccc(-c2cc(=O)c3c(O)cc(O[C@@H]4O[C@H](COC(=O)CC(=O)O)[C@@H](O)[C@H](O)[C@H]4O)cc3o2)cc1
< 4.30	COc1cc(/C=C/C(=O)OC[C@H]2O[C@@H](OCC/C=C\C[C@H]3C(=O)CC[C@@H]3CC(=O)O)[C@H](O)[C@@H](O)[C@@H]2O)ccc1O
5.39	C=CCc1ccc(O)c(O[C@@H]2O[C@H](CO)[C@@H](O)[C@H](O)[C@H]2O)c1
< 4.30	COc1ccc(-c2cc(=O)c3c(O)cc(O[C@@H]4O[C@H](CO)[C@@H](O)[C@H](OC(C)=O)[C@H]4O)cc3o2)cc1
5.33	COc1ccc(-c2cc(=O)c3c(O)cc(O[C@@H]4O[C@H](CO)[C@@H](O)[C@H](O)[C@H]4OC(C)=O)cc3o2)cc1
4.47	COc1cc(/C=C/C(=O)OC[C@H]2O[C@@H](Oc3ccccc3C(=O)O)[C@H](O)[C@@H](O)[C@@H]2O)ccc1O
4.84	C=CCc1ccc(O[C@@H]2O[C@H](COC(=O)CC(=O)OC)[C@@H](O)[C@H](O)[C@H]2O)cc1
< 4.30	COc1ccc([C@@H]2CC(=O)c3c(O)cc(O[C@@H]4O[C@H](CO)[C@@H](O)[C@H](O)[C@H]4O)cc3O2)cc1
4.31	C=CCc1ccc(O[C@@H]2O[C@H](COC(C)=O)[C@@H](O)[C@H](O)[C@H]2O)cc1
4.77	COc1ccc(-c2cc(=O)c3c(O)cc(O[C@@H]4O[C@H](COC(=O)CC(=O)O)[C@@H](O)[C@H](OC(C)=O)[C@H]4O)cc3o2)cc1
4.54	COc1ccc(-c2cc(=O)c3c(O)cc(O[C@@H]4O[C@H](COC(=O)CC(=O)O)[C@@H](O)[C@H](O)[C@H]4OC(C)=O)cc3o2)cc1
< 4.30	COc1ccc(-c2cc(=O)c3c(O)cc(O[C@@H]4O[C@H](CO)[C@@H](O)[C@H](O)[C@H]4O)cc3o2)cc1O
5.21	COc1ccc(-c2cc(=O)c3c(O)cc(O)cc3o2)cc1 [ACACETIN]

pIC50	SMILES
4.87	O=c1cc(-c2ccc(O)cc2)oc2cc(O)cc(O)c12 [APIGENIN]
< 4.30	O=c1cc(-c2ccc(O)cc2)oc2cc(O[C@@H]3O[C@H](CO)[C@@H](O)[C@H](O)[C@H]3O)cc(O)c12 [APIGETRIN]
5.77	C=CCc1ccc(O[C@@H]2O[C@H](CO)[C@@H](O)[C@H](O)[C@H]2O)c(OC)c1 [CITRUSIN C]
5.08	COc1ccc(-c2cc(=O)c3c(O)cc(O)cc3o2)cc1O [DIOSMETIN]
5.70	CCOC(=O)/C=C/c1ccc(O)c(O)c1 [ETHYL CAFFEATE]
5.37	CCOC(=O)[C@@H](Cc1ccc(O)c(O)c1)OC(=O)/C=C/c1ccc(O)c(O)c1 [ETHYL ROSMARINATE]
5.21	O=c1cc(-c2ccc(O)c(O)c2)oc2cc(O[C@@H]3O[C@H](CO)[C@@H](O)[C@H](O)[C@H]3O)cc(O)c12 [GALUTEOLIN]
4.95	COC(=O)[C@@H](Cc1ccc(O)c(O)c1)OC(=O)/C=C/c1ccc(O)c(O)c1 [METHYL ROSMARINATE]
5.41	COC(=O)/C=C/c1ccc(O)c(O)c1 [METHYLCAFFEATE]
5.42	O=C(/C=C/c1ccc(O)c(O)c1)O/C=C\c1ccc(O)c(O)c1 [NEPETOIDIN B]
8.17	CS(=O)(=O)Nc1ccc([N+](=O)[O-])cc1OC1CCCCC1 [NS-398]
4.84	O=C(CCc1ccc(O)cc1)c1c(O)cc(O)cc1O[C@@H]1O[C@H](CO)[C@@H](O)[C@H](O)[C@H]1O [PHLORIZIN]
4.47	O=C(/C=C/c1ccc(O)c(O)c1)O[C@H](Cc1ccc(O)c(O)c1)C(=O)O [ROSMARINIC ACID]
5.13	COc1ccc(-c2cc(=O)c3c(O)cc(O[C@@H]4O[C@H](CO)[C@@H](O)[C@H](O)[C@H]4O)cc3o2)cc1 [TILIANINE]
< 4.30	COc1ccc(C(=O)O)cc1 [p-ANISIC ACID]

SMILES	pIC50
O=c1cc(-c2ccc(O)c(O)c2)oc2cc(O)cc(O)c12 [LUTEOLIN]	5.09
